Measured values reported in patent US6166072A, “Amino acid derivatives” (Allelix Neuroscience, Inc., priority 1999, dated 2000).

target: T1, GlyT-1C (Homo sapiens, UniProt P48067); assay: Glycine uptake by cells transiently transfected with GlyT-1C; format: cell-based; conditions: GlyT-1 and GlyT-2 transfected cells
T1 construct: [3H]glycine uptake
T1 sequence (P48067 1-706): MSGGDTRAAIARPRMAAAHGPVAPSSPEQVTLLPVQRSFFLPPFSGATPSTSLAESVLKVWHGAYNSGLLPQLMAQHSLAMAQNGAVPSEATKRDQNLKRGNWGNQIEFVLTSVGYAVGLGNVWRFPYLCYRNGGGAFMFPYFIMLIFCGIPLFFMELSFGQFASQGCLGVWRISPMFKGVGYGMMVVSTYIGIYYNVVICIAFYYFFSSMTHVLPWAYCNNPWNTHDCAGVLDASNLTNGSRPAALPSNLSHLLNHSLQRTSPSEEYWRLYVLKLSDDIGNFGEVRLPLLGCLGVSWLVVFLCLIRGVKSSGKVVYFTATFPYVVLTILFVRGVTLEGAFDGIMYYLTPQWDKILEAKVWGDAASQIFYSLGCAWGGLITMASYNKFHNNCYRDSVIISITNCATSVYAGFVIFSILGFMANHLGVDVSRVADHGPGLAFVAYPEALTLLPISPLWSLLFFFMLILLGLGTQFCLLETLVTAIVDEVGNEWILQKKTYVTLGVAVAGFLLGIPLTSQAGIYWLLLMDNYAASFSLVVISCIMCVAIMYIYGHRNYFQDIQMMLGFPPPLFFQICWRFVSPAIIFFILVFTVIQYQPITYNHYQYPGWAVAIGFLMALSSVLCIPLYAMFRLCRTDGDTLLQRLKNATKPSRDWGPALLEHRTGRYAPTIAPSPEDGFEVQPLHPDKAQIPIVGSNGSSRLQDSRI
Experimental: (§1) This example illustrates a method for the measurement of glycine uptake by transfected cultured cells.
(§2) Cells transiently transfected with GlyT-1C (see Kim, et al., Molecular Pharmacology, 45, 1994:608-617) and human GlyT-2 (the homolog of the rat GlyT-2 described by Liu et al., J. Biological Chemistry, 268, 1993.22802-22808) were washed three times with HEPES buffered saline (HBS). The cells were then incubated 10 minutes at 37° C., after which a solution containing 50 nM [^3 H]glycine (17.5 Ci/mmol) and either (a) no potential competitor, (b) […] nonradioactive glycine or (c) a concentration of a candidate drug. A range of concentrations of the candidate drug was used to generate data for calculating the concentration resulting in 50% of the effect (e.g., the IC50 's which are the concentration of drug inhibiting glycine uptake by 50%). The cells were then incubated another 10 minutes at 37° C., after which the cells were aspirated and washed three times with ice-cold HBS. The cells were harvested, scintillant was added to the cells, the cells were shaken for 30 minutes, and the radioactivity in the cells was counted using a scintillation counter. Data were compared between the same cells contacted and not contacted by the candidate agent, and between cells having GlyT-1 activity versus cells having GlyT-2 activity, depending on the assay being conducted.

Question: With `CCc1ccc(C(SC(C)(C)C(N)C(=O)O)c2ccc(F)cc2)cc1CC` (racemic) [S-(3,4-Diethyl-4-fluorodiphenyl)methyl-D,L-dimethylcysteine] as the molecule, how does the “mixed GlyT-1/GlyT-2 activity” value read?
Answer: Its value is “mixed GlyT-1/GlyT-2 activity”.

Question: `CCCc1ccc(C(SCC(N)C(=O)O)c2ccc(F)cc2F)cc1` (racemic) [S-(2,4-Difluoro-4'-^npropyldiphenyl)methyl-D,L-cysteine] was tested. Which “mixed GlyT-1/GlyT-2 activity” value did it give?
Answer: The value was “mixed GlyT-1/GlyT-2 activity”.

Question: How did the “mixed GlyT-1/GlyT-2 activity” value turn out when `CC(C)(C)c1ccc(C(SCCC(N)C(=O)O)c2ccccc2)cc1` (racemic) [S-(4'-Butyidiphenyl)methyl-D,L-homocysteine] was run?
Answer: The value was “mixed GlyT-1/GlyT-2 activity”.

Question: `CCc1ccc(C(SCC(N)C(=O)O)c2cccc(F)c2)cc1CC` (racemic) [S-(3,4-Diethyl-3'-fluorodiphenyl)methyl-D,L-cysteine] was tested. Which “mixed GlyT-1/GlyT-2 activity” value did it give?
Answer: The value was “mixed GlyT-1/GlyT-2 activity”.

Question: For `CCc1ccc(C(SCC(N)C(=O)O)c2cccc(C(F)(F)F)c2)cc1CC` (racemic) [S-(3,4-Diethyl-3'-trifluoromethyidiphenyl)methyl-D,L-cysteine], which “mixed GlyT-1/GlyT-2 activity” value is on record?
Answer: Its value is “mixed GlyT-1/GlyT-2 activity”.

target: T2, human GlyT-2 (Homo sapiens, UniProt Q9Y345); assay: Glycine uptake by cells transiently transfected with human GlyT-2; format: cell-based; conditions: GlyT-2 versus GlyT-1 transfected cells
T2 construct: [3H]glycine uptake
T2 sequence (Q9Y345 1-797): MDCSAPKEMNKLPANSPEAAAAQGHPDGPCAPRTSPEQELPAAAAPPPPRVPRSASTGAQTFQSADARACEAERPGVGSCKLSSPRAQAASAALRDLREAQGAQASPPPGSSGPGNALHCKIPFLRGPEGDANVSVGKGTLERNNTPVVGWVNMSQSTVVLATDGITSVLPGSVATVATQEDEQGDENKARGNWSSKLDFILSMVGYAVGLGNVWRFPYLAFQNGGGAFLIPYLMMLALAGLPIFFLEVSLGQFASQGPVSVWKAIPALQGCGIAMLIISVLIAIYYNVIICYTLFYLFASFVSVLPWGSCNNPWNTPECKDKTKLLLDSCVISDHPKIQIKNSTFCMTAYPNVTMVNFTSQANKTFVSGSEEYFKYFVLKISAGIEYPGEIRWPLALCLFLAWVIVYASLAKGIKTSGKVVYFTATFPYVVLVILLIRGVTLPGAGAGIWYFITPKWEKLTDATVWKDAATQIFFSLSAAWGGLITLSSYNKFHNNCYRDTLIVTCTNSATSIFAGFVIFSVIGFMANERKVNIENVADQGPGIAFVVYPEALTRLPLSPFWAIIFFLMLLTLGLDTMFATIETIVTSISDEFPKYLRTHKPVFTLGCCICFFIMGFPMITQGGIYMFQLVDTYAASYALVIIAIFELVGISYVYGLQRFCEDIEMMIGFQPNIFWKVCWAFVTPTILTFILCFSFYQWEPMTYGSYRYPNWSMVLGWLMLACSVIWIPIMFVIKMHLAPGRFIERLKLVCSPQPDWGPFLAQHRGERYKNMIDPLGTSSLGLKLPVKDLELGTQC
Experimental: as §1, §2

Question: How did the “selectivity for inhibition of glycine transport via GlyT-2 versus GlyT-1” value (shortened to “selectivity for inhibition”) turn out when `CCc1ccc(C(SCC(N)C(=O)O)c2ccc(F)cc2F)cc1CC` (racemic) [S-(3,4-Diethyl-2',4'-difluorodiphenyl)methyl-D,L-cysteine] was run?
Answer: The value was “selectivity for the inhibition of glycine transport via GlyT-2 versus GlyT-1”.

Question: `Cc1ccc(C(SCC(N)C(=O)O)c2ccc(C)cc2)cc1` (racemic) [S-(4,4'-Dimethyldiphenyl)methyl-D,L-cysteine] was tested. Which “selectivity for inhibition” value did it give?
Answer: The value was “selectivity for the inhibition of glycine transport via GlyT-2 versus GlyT-1”.

Question: How did the “selectivity for inhibition” value turn out when `NC(CSC(c1ccc2c(c1)CCCC2)c1ccc(F)cc1F)C(=O)O` (racemic) [S-[α-(5,6,7,8-Tetrahydronaphth-2-yl)-α-(2,4-difluorophenyl)]methyl-D,L-cysteine] was run?
Answer: The value was “selectivity for the inhibition of glycine transport via GlyT-2 versus GlyT-1”.

Question: How did the “selectivity for inhibition” value turn out when `CCc1ccc(C(SC(C)(C)C(N)C(=O)O)c2ccccc2F)cc1CC` (racemic) [S-(3,4-Diethyl-2'-fluorodiphenyl)methyl-D,L-dimethylcysteine] was run?
Answer: Its value is “selectivity for the inhibition of glycine transport via GlyT-2 versus GlyT-1”.

Question: For `Cc1ccc(C(SCC(N)C(=O)O)c2ccc(C)s2)s1` (racemic) [S-[α,α-Bis(5-methyl-2-thienyl)]methyl-D,L-cysteine], which “selectivity for inhibition” value is on record?
Answer: Its value is “selectivity for the inhibition of glycine transport via GlyT-2 versus GlyT-1”.

Question: With `CCc1ccc(C(SCC(N)C(=O)O)c2ccc([N+](=O)[O-])cc2)cc1CC` (racemic) [S-(3,4-Diethyl-4'-nitrodiphenyl)methyl-D,L-cysteine] as the molecule, how does the “selectivity for inhibition” value read?
Answer: The value was “selectivity for the inhibition of glycine transport via GlyT-2 versus GlyT-1”.

Question: `NC(CSC(c1ccc(F)cc1)c1ccccc1-c1ccccc1)C(=O)O` (racemic) [S-(4-Fluoro-2'-phenyldiphenyl)methyl-D,L-cysteine] was tested. Which “selectivity for inhibition” value did it give?
Answer: Its value is “selectivity for the inhibition of glycine transport via GlyT-2 versus GlyT-1”.
